From PubChem BioAssay (NCI)
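Five compound concentrations were applied to cells in 96-well plates for 48 hours; endpoints were derived by simple linear interpolation of the resulting dose-response curve. GI50 marks 50% less growth. TGI: concentration producing complete growth inhibition.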

Tests used:
Test in all cases: inhibition of tumour cell growth, NCI panel, 48 h
SNB-19 CNS = system: SNB-19 CNS
HOP-92 NSCLC = system: HOP-92 NSCLC
HCC-2998 colon = system: HCC-2998 colon
IGROV1 ovarian = system: IGROV1 ovarian
TK-10 renal = system: TK-10 renal
BT-549 breast = system: BT-549 breast
ACHN renal = system: ACHN renal
SF-268 CNS = system: SF-268 CNS
HCT-116 colon = system: HCT-116 colon
HCT-15 colon = system: HCT-15 colon
HS 578T breast = system: HS 578T breast
SW-620 colon = system: SW-620 colon
NCI/ADR-RES ovarian = system: NCI/ADR-RES ovarian
PC-3 prostate = system: PC-3 prostate
HT29 colon = system: HT29 colon
UACC-257 melanoma = system: UACC-257 melanoma
UO-31 renal = system: UO-31 renal
CAKI-1 renal = system: CAKI-1 renal
SNB-75 CNS = system: SNB-75 CNS
SK-MEL-2 melanoma = system: SK-MEL-2 melanoma
HOP-62 NSCLC = system: HOP-62 NSCLC
NCI-H522 lung = system: NCI-H522 lung
MDA-MB-435 = system: MDA-MB-435
SK-OV-3 ovarian = system: SK-OV-3 ovarian
SF-295 CNS = system: SF-295 CNS
MALME-3M melanoma = system: MALME-3M melanoma
SK-MEL-28 melanoma = system: SK-MEL-28 melanoma
MOLT-4 leukemia = system: MOLT-4 leukemia
A549 NSCLC = system: A549 NSCLC

Q: Which GI50 (SNB-19 CNS) does the source give for NCCOc1ncccc1/C=C1\c2ccccc2-c2ccc(F)cc21 here?
A: The GI50 was 0.57 µM.

Q: And the TGI (SNB-19 CNS)?
A: The TGI was 2.58 µM.

Q: What about the GI50 (HOP-92 NSCLC) of the same compound?
A: Its GI50 is 0.353 µM.

Q: And the TGI (HOP-92 NSCLC)?
A: Its TGI is 3.19 µM.

Q: What about the GI50 (HCC-2998 colon) of the same compound?
A: Its GI50 is 1.34 µM.

Q: What about the TGI (HCC-2998 colon) of the same compound?
A: The TGI was 2.75 µM.

Q: What about the GI50 (IGROV1 ovarian) of the same compound?
A: Its GI50 is 1.16 µM.

Q: And the TGI (IGROV1 ovarian)?
A: The TGI was 2.47 µM.

Q: What about the GI50 (TK-10 renal) of the same compound?
A: Its GI50 is 1.37 µM.

Q: And the TGI (TK-10 renal)?
A: The TGI was 2.85 µM.

Q: And the GI50 (BT-549 breast)?
A: The GI50 was 1.64 µM.

Q: And the TGI (BT-549 breast)?
A: The TGI was 4.48 µM.

Q: What about the GI50 (ACHN renal) of the same compound?
A: The GI50 was 0.349 µM.

Q: What about the TGI (ACHN renal) of the same compound?
A: The TGI was 1.37 µM.

Q: What about the GI50 (SF-268 CNS) of the same compound?
A: Its GI50 is 1.08 µM.

Q: What about the TGI (SF-268 CNS) of the same compound?
A: The TGI was 4.1 µM.

Q: What about the GI50 (HCT-116 colon) of the same compound?
A: The GI50 was 0.703 µM.

Q: What about the TGI (HCT-116 colon) of the same compound?
A: Its TGI is 2.12 µM.

Q: And the GI50 (HCT-15 colon)?
A: Its GI50 is 0.781 µM.

Q: What about the TGI (HCT-15 colon) of the same compound?
A: Its TGI is 2.32 µM.

Q: And the GI50 (HS 578T breast)?
A: The GI50 was 1.74 µM.

Q: And the TGI (HS 578T breast)?
A: The TGI was 5.02 µM.

Q: And the GI50 (SW-620 colon)?
A: The GI50 was 0.682 µM.

Q: What about the TGI (SW-620 colon) of the same compound?
A: Its TGI is 2.17 µM.

Q: What about the GI50 (NCI/ADR-RES ovarian) of the same compound?
A: The GI50 was 1.24 µM.

Q: And the TGI (NCI/ADR-RES ovarian)?
A: Its TGI is 2.71 µM.

Q: What about the GI50 (PC-3 prostate) of the same compound?
A: Its GI50 is 1.18 µM.

Q: And the TGI (PC-3 prostate)?
A: Its TGI is 2.62 µM.

Q: What about the GI50 (HT29 colon) of the same compound?
A: Its GI50 is 1.19 µM.

Q: What about the TGI (HT29 colon) of the same compound?
A: The TGI was 2.8 µM.

Q: What about the GI50 (UACC-257 melanoma) of the same compound?
A: Its GI50 is 1.66 µM.

Q: And the TGI (UACC-257 melanoma)?
A: The TGI was 3.34 µM.

Q: And the GI50 (UO-31 renal)?
A: Its GI50 is 1.12 µM.

Q: What about the TGI (UO-31 renal) of the same compound?
A: The TGI was 2.34 µM.

Q: What about the GI50 (CAKI-1 renal) of the same compound?
A: Its GI50 is 0.461 µM.

Q: And the TGI (CAKI-1 renal)?
A: Its TGI is 2 µM.

Q: And the GI50 (SNB-75 CNS)?
A: Its GI50 is 1.1 µM.

Q: And the TGI (SNB-75 CNS)?
A: The TGI was 3.26 µM.

Q: And the GI50 (SK-MEL-2 melanoma)?
A: Its GI50 is 1.91 µM.

Q: And the TGI (SK-MEL-2 melanoma)?
A: Its TGI is 3.76 µM.

Q: What about the GI50 (HOP-62 NSCLC) of the same compound?
A: Its GI50 is 0.446 µM.

Q: And the TGI (HOP-62 NSCLC)?
A: Its TGI is 1.87 µM.

Q: And the GI50 (NCI-H522 lung)?
A: Its GI50 is 1.13 µM.

Q: And the TGI (NCI-H522 lung)?
A: Its TGI is 2.76 µM.

Q: What about the GI50 (MDA-MB-435) of the same compound?
A: Its GI50 is 1.55 µM.

Q: What about the TGI (MDA-MB-435) of the same compound?
A: Its TGI is 2.98 µM.

Q: What about the GI50 (SK-OV-3 ovarian) of the same compound?
A: The GI50 was 1.24 µM.

Q: And the TGI (SK-OV-3 ovarian)?
A: The TGI was 2.91 µM.

Q: And the GI50 (SF-295 CNS)?
A: The GI50 was 0.462 µM.

Q: What about the TGI (SF-295 CNS) of the same compound?
A: Its TGI is 1.81 µM.

Q: And the GI50 (MALME-3M melanoma)?
A: The GI50 was 1.24 µM.

Q: And the TGI (MALME-3M melanoma)?
A: Its TGI is 2.64 µM.

Q: And the GI50 (SK-MEL-28 melanoma)?
A: The GI50 was 1.62 µM.

Q: And the TGI (SK-MEL-28 melanoma)?
A: The TGI was 3.04 µM.

Q: What about the GI50 (MOLT-4 leukemia) of the same compound?
A: Its GI50 is 0.282 µM.

Q: And the TGI (MOLT-4 leukemia)?
A: Its TGI is 1.16 µM.

Q: What about the GI50 (A549 NSCLC) of the same compound?
A: The GI50 was 0.311 µM.

Q: And the TGI (A549 NSCLC)?
A: Its TGI is 1.92 µM.
